Measurements as given in ChEMBL document CHEMBL1201862, “PubChem BioAssay data set” (2004).
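How tested: cells in 96-well plates exposed to compound for 48 hours at five concentrations. Abbreviation: GI50, concentration required for 50% inhibition of growth.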 Calls of active or inactive are those of the source. Rule as the data show it: active = GI50 up to about 1.1 µM and inactive = higher.

Key:
Experiment in all cases: NCI-60 cell line screen, 48 h
T47D = system: T47D
SF-268 = system: SF-268
SF-295 = system: SF-295
DU-145 = system: DU-145
MOLT-4 = system: MOLT-4
BT-549 = system: BT-549
RXF 393 = system: RXF 393
TK-10 = system: TK-10
RPMI-8226 = system: RPMI-8226
HOP-62 = system: HOP-62
Malme-3M = system: Malme-3M
M14 = system: M14
SR = system: SR
HT-29 = system: HT-29
SK-OV-3 = system: SK-OV-3
HCT-15 = system: HCT-15
U-251 = system: U-251
SK-MEL-2 = system: SK-MEL-2
OVCAR-8 = system: OVCAR-8
CAKI-1 = system: CAKI-1

Compound | GI50 (T47D) | GI50 (SF-268) | GI50 (SF-295) | GI50 (DU-145) | GI50 (MOLT-4) | GI50 (BT-549) | GI50 (RXF 393) | GI50 (TK-10) | GI50 (RPMI-8226) | GI50 (HOP-62) | GI50 (Malme-3M) | GI50 (M14) | GI50 (SR) | GI50 (HT-29) | GI50 (SK-OV-3) | GI50 (HCT-15) [µM] | GI50 (U-251) | GI50 (SK-MEL-2) | GI50 (OVCAR-8) | GI50 (CAKI-1)
O=C(CSc1ncnc2[nH]cnc12)c1ccccc1 | > 100 µM (inactive) | > 100 µM (inactive) | > 100 µM (inactive) | > 100 µM (inactive) | > 65.6 µM (inactive) | > 100 µM (inactive) | > 76.2 µM (inactive) | > 66.7 µM (inactive) | > 64.3 µM (inactive) | > 100 µM (inactive) | > 100 µM (inactive) | > 88.3 µM (inactive) | 92.5 µM (inactive) | > 100 µM (inactive) | > 100 µM (inactive) | > 100 | > 100 µM (inactive) | > 43.2 µM (inactive) | > 100 µM (inactive) | 75.2 µM (inactive)
COC(=O)c1c(O)ccc2c1c1c(n2C)C(=O)c2ccccc2C1=O | 3.42 µM (inactive) | 13.8 µM (inactive) | 22.5 µM (inactive) | 11.9 µM (inactive) | 5.78 µM (inactive) | 10.4 µM (inactive) | 15.4 µM (inactive) | 26.7 µM (inactive) | 4.78 µM (inactive) | 14.8 µM (inactive) | 42.5 µM (inactive) | 49.2 µM (inactive) | 16.2 µM (inactive) | 78.2 µM (inactive) | 6.19 µM (inactive) | 13.1 | 15.7 µM (inactive) | 25.4 µM (inactive) | 17.8 µM (inactive) | 7.69 µM (inactive)
CC(C)NC(=O)OCc1c(COC(=O)NC(C)C)c(-c2cc[n+](COC(=O)C3CC3)cc2)n2c1CCC2 | > 100 µM (inactive) | > 100 µM (inactive) | > 100 µM (inactive) | > 100 µM (inactive) | > 100 µM (inactive) | > 100 µM (inactive) | 50.1 µM (inactive) | > 100 µM (inactive) | > 100 µM (inactive) | > 100 µM (inactive) | > 100 µM (inactive) | > 100 µM (inactive) | > 100 µM (inactive) | > 100 µM (inactive) | > 100 µM (inactive) | > 100 | > 100 µM (inactive) | > 100 µM (inactive) | > 100 µM (inactive) | > 100 µM (inactive)
Nc1ccc2c(c1)C(=O)N1CCC[C@H]1C(=O)N2 | > 100 µM (inactive) | > 100 µM (inactive) | > 100 µM (inactive) | > 100 µM (inactive) | > 100 µM (inactive) | > 100 µM (inactive) | > 100 µM (inactive) | > 100 µM (inactive) | > 100 µM (inactive) | > 100 µM (inactive) | > 100 µM (inactive) | > 100 µM (inactive) | > 100 µM (inactive) | > 100 µM (inactive) | > 100 µM (inactive) | > 100 | > 100 µM (inactive) | > 100 µM (inactive) | > 100 µM (inactive) | > 100 µM (inactive)
Cc1cccc(-c2cc(O)c3cc(C)cnc3n2)c1 | 6.5 µM (inactive) | 0.724 µM (active) | 0.148 µM (active) | 0.279 µM (active) | 0.244 µM (active) | 0.292 µM (active) | 0.229 µM (active) | 5.52 µM (inactive) | 0.239 µM (active) | 0.373 µM (active) | 0.111 µM (active) | 0.0998 µM (active) | 0.0368 µM (active) | 0.15 µM (active) | 0.272 µM (active) | 0.183 | 0.147 µM (active) | 0.224 µM (active) | 0.39 µM (active) | 0.199 µM (active)
